# Key:
# Jurkat cells = test: Measuring metabolically active cells using quinone coelenterazine derivatives; assay type: cell-based; conditions: two-fold serial dilutions of Jurkat cells; stocks 50 μM (40) and 100 μM (50); 30 minutes at 37° C.; Oplophorus luciferase detection reagent
# Source text: Viable cells maintain a metabolically active state that is inevitably lost when cells are damaged. Upon entering the living cells, the quinone coelenterazine is reduced to a coelenterazine derivative that is a substrate for a coelenterazine-utilizing luciferase, e.g., Oplophorus or Renilla luciferase. Conversion of the quinone coelenterazine is proportional to the number of metabolically active cells, and therefore can be measured quantitatively by monitoring light produced by luciferase reaction.
# Two-fold serial dilutions of Jurkat cells were prepared in PBS, and 50 μl per well transferred to wells in 96-well plates. Compounds 40 and 50 were diluted in PBS to make 50 μM and 100 μM stocks, respectively. 10 μl of prepared compound stocks were added to the cells, and the cells were placed into 37° C., 5% CO2 incubator. Following 30 minutes incubation, the cells were removed from incubator, cooled at room temperature for 10 minutes, and 50 μl of Oplophorus luciferase detection reagent added directly to the wells. The samples were mixed, incubated at room temperature for 20 minutes, and luminescence measured.
# caspase-3 [1] = test: Caspase 3 assay using Oplophorus luciferase variant 9B8 opt; assay type: biochemical; conditions: 23.5 μM substrate, OgLuc 9B8 opt lysate, no caspase-3
# Experimental: (§1) An Oplophorus luciferase (OgLuc) variant, 9B8 opt, was used in a bioluminescent assay using a pro-coelenterazine substrate comprising the DEVD caspase-3 cleavage sequence. Purified caspase-3 enzyme was mixed with an E. coli lysate sample expressing the variant 9B8 opt, which was purified using the HALOLINK™ Resin (Promega Corp.) according to manufacturer's instructions, and diluted 10-fold in a buffer containing 100 mM MES pH 6.0, 1 mM CDTA, 150 mM KCl, 35 mM thiourea, 2 mM DTT, 0.25% TERGITOL® NP-9 (v/v), 0.025% MAZU®, with or without 23.5 μM z-DEVD-coelenterazine-h in 100 mM HEPES pH 7.5. The caspase-3 enzyme was incubated with the lysate sample for 3 hrs at room temperature, and luminescence detected on a Turner MODULUS™ luminometer at various time points. A sample containing only bacterial lysate and a sample containing only caspase-3 were used as controls. Three replicates were used.
# caspase-3 [2] = biological target: T1, caspase-3 (Homo sapiens, UniProt P42574); test: as above; assay type: biochemical; conditions: 23.5 μM substrate, OgLuc 9B8 opt lysate, with caspase-3
# T1 sequence (P42574 29-175 limits assumed): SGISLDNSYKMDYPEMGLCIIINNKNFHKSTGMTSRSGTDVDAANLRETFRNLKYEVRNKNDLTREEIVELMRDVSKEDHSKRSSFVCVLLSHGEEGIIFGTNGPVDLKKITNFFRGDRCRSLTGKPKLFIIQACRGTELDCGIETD
# T1 sequence (P42574 176-277 limits assumed): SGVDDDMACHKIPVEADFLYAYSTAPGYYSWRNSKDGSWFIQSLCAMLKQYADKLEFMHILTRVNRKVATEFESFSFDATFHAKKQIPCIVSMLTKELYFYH
# Experimental: as §1
# caspase-3 [3] = biological target: T1, caspase-3; test: Caspase-3 detection with z-DEVD-coelenterazine-h and Renilla luciferase; assay type: biochemical; conditions: 25 μM substrate, 25 U/ml caspase-3, 3.25 ug/ml Renilla luciferase, measured over 110 minutes
# Experimental: Compound 21 (50 μM) was combined with Renilla luciferase (6.5 μg/ml, Renilla-GST fusion) in 50 mM HEPES buffer pH 7.2, 2 mM DTT, and 0.5% CHAPS and incubated for 20 minutes to remove any free coelenterazine derivatives that may be substrates for Renilla luciferase. Purified caspase-3 enzyme (50 U/ml) or buffer control was added in a 1:1 volume ratio for final concentrations of 25 μM Z-DEVD-coelenterazine h derivative substrate, 25 U/ml caspase-3 and 3.25 ug/ml luciferase. Luminescence was measured over 110 minutes.
compound,measurement,setting,value
CC1=C(C)C(=O)C(C(C)(C)CC(=O)N(C)CCN(C)C(=O)Oc2c(Cc3ccco3)nc3c(Cc4ccccc4)nc(-c4ccccc4)cn23)=C(C)C1=O [Compound 40],relationship between luminescence and cell number,Jurkat cells,linear correlation between cell number and luminescence
CC1=C(C)C(=O)C(C(C)(C)CC(=O)N(C)CCN(C)C(=O)Oc2c(Cc3ccccc3)nc3c(Cc4ccccc4)nc(-c4ccccc4)cn23)=C(C)C1=O [Compound 50],relationship between luminescence and cell number,Jurkat cells,linear correlation between cell number and luminescence
z-DEVD-coelenterazine-h [Compound 21],"luminescence, − caspase",caspase-3 [1]; 5.0 min,"26,023 RLU"
same,"luminescence, − caspase",caspase-3 [1]; 15.3 min,"7,707 RLU"
same,"luminescence, − caspase",caspase-3 [1]; 29.9 min,"4,013 RLU"
same,"luminescence, − caspase",caspase-3 [1]; 60.9 min,"2,305 RLU"
same,"luminescence, − caspase",caspase-3 [1]; 190.3 min,"1,155 RLU"
same,"luminescence, + caspase",caspase-3 [2]; 5.0 min,"25,411 RLU"
same,"luminescence, + caspase",caspase-3 [2]; 15.3 min,"36,906 RLU"
same,"luminescence, + caspase",caspase-3 [2]; 29.9 min,"41,854 RLU"
same,"luminescence, + caspase",caspase-3 [2]; 60.9 min,"43,370 RLU"
same,"luminescence, + caspase",caspase-3 [2]; 190.3 min,"42,448 RLU"
same,increase in luminescence relative to control samples that did not contain caspase,caspase-3 [3],one hundred-fold increase

# Reference: US9487520B2, “Coelenterazine derivatives and methods of using same” (PROMEGA CORPORATION, priority 2010, dated 2016)
